According to US10919899B2, “Imidazopyrazine compounds, preparation methods and uses thereof” (DONGGUAN ZHENXING-BEITE MEDICINE TECHNOLOGY CO., LTD., priority 2017, dated 2021):
“Also recorded” adds a separate entry of the source.

Key:
Tec (h) activated = Tec (h) activated (Homo sapiens (Human), UniProt P42680); experiment: Tec activity inhibition assay (radioactive protein kinase method, Eurofins); assay type: biochemical
Method: (§1) The inhibitory activities of the compound to Tec, Txk, and ITK of human were performed by Eurofins Pharma Discovery Services UK Limited (UK) of the United Kingdom. In the case of Km ATP, the radioactive protein kinase method was adopted by the test. The kinase was diluted with buffer solution (20 mM MOPS, 1 mM EDTA, 0.01% Brij-35, 5% Glycerol, 0.1% […], 1 mg/mL BSA) before the reaction. The compound was dissolved in 100% DMSO and was of 50-fold final reaction concentration.
10 μl (reaction solution) was placed on P30 filtration membrane, washed with 75 mM phosphoric acid for 5 minutes, and dried with methanol for one time, and then scintillation counting was performed.

EGFR T790M/L858R = EGFR T790M/L858R (Homo sapiens, UniProt P00533, L858R/T790M); experiment: EGFR activity inhibition assay (Caliper mobility shift); assay type: biochemical
EGFR T790M/L858R, sequence (P00533 25-1210 T790M/L858R limits assumed): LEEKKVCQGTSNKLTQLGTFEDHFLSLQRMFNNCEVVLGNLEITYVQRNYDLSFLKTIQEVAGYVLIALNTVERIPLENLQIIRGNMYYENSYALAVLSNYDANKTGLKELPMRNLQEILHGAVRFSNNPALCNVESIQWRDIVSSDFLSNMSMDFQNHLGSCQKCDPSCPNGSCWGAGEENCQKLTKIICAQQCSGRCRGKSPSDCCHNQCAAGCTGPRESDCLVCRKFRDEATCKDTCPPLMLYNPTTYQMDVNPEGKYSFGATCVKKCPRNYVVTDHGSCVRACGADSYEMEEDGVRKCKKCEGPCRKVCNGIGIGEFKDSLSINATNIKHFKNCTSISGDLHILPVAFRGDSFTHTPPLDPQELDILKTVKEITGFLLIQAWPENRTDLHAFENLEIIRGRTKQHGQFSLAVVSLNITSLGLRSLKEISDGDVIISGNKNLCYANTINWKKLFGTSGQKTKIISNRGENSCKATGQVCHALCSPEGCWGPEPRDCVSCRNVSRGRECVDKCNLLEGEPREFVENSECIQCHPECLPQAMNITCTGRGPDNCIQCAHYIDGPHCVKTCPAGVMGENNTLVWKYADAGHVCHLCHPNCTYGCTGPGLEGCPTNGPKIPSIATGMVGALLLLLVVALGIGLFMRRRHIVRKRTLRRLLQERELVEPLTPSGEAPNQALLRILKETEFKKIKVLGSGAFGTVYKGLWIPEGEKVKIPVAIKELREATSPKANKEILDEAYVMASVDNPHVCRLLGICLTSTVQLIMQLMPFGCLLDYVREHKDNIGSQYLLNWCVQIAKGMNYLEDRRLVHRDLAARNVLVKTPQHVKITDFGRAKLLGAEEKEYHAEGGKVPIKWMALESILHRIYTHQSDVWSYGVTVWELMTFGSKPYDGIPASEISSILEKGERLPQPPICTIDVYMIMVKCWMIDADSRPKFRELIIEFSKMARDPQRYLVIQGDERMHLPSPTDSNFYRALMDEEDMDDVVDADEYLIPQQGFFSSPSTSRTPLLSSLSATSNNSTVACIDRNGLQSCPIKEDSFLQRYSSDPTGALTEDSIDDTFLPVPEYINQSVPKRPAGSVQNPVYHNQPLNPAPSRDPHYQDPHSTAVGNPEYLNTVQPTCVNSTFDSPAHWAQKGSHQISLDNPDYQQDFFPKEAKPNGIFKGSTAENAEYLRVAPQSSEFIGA
Description: The conversion ratio data was read on Caliper EZ Reader II (Caliper Life Sciences).

[1] = Pharmacokinetic (PK) assay in rats; assay type: in vivo, rat; settings: 20 mg/kg oral
Method: A male SD rat with 250-300 g of weight was fasted overnight before the assay. The compound to be tested was dissolved in 30% sulfobutyl ether-β-cyclodextrin (SBE-β-CD) and intragastrically administrated to the rat by 20 mg/kg of dosages. Take blood at 15th minute, 30th minute, and 1st, 2nd, 3rd, 4th, 6th, 8th, and 24th hours after the administratation, and about 0.3 mL of blood was taken at each time point. The blood samples were placed into centrifuge tubes containing K2-EDTA (dipotassium ethylene diamine tetraacetate) and plasma was taken via centrifugal treatment (2,000 g, 10 minutes, 4° C.) and stored in a −80° C. of ultra low temperature refrigerator. 50 μL of plasma sample was mixed with 50 μL of internal standard (IS) and extracted with ethyl acetate. After vacuum dried, the residue was re-dissolved in acetonitrile The sample was filtered and injected into LC-MS/MS to be analyzed.

[2] = system: Diffuse large B cell lymphoma cell strain TMD-8; experiment: Tumor cell proliferation inhibition assay (CellTiter-Glo), TMD-8; assay type: cell-based; settings: Homo sapiens, TMD8; 72 hours, 10% fetal calf serum; read-out: TMD-8 anti-proliferative IC50 level
Method: (§2) Cell viability was evaluated by measuring a content of triphosadenine (ATP) by using CellTiter-Glo luminescent cell viability assay kit method (Promega, # G7572, Madison, Wis.). Diffuse large B cell lymphoma cell strain TMD-8 and HCC827 NSCL cell strains are purchased from Shanghai Fudan IBS Cell Center and American Type Culture Collection (ATCC). After the cells were digested from a cell culture dish by pancreatin and re-suspended by DPBS culture medium, a Scepter automatic cell counter (Millipore, # PHCC00000) was used for counting to measure a cell density. The cells were diluted to be a solution containing 44,000 cells per milliliter. The cell solution with the adjusted density was added into a cell assay plate with 90 μl per well. The well plate was placed to an incubator with 5% CO2 at 37° C. to be incubated for 24 hours and then added with the compound to be tested with different concentrations. The cells and the compound were together incubated for 72 hours in the presence of 10% fetal calf serum. The content of ATP was measured by using CellTiter-Glo® Luminescent Cell Viability Assay kit (referring to manufacturer's instruction) to evaluate the inhibition to the cell growth. Briefly speaking, each well was added with 30 μl of CellTiter-Glo® reagent, the plate was shaken for 10 minutes to induce the cells to be lysed, and fluorescence signal was detected and recorded by fluorescencelchemiluminescence analyzer Fluoroskan Ascent FL (Thermo Scientific Fluoroskan Ascent FL). The maximal signal value was obtained from cells processed by dimethyl sulfoxide (DMSO) for 72 or 120 hours. The minimal signal value obtained from separate culture medium (wherein the number of cells was zero) was defined as 0. Inhibition ratio %=(maximal signal value-compound signal value)/(maximal signal value−minimal signal value)×100%. The data was processed by using GraphPad Prism V5.0 (GraphPad Software San Diego, Calif.) software. IC50 value was fitted and calculated via S-shaped dose-response curve.

BTK = BTK (Homo sapiens (Human), UniProt Q06187); experiment: BTK kinase activity inhibition assay (Caliper mobility shift); assay type: biochemical; settings: ATP 90 μM, read-out: BTK IC50 level
BTK, sequence (Q06187 whole entry): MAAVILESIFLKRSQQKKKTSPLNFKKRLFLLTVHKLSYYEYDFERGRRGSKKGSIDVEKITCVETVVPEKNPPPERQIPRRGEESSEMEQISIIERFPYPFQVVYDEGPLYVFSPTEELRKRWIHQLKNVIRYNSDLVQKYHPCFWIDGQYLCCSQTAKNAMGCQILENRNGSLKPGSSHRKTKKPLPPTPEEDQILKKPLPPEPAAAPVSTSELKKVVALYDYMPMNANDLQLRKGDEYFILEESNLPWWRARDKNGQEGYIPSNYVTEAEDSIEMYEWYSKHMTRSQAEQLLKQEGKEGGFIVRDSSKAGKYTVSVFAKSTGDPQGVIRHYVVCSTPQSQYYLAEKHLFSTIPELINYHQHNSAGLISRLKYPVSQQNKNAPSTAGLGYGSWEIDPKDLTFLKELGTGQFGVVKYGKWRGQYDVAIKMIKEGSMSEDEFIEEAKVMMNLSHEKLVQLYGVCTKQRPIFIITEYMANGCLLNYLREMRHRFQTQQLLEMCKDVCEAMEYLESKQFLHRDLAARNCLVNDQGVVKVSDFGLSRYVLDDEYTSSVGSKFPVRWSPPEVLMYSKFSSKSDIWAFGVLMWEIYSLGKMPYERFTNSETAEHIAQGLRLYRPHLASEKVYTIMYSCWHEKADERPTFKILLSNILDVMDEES
Method: Activity of BTK protein kinase was tested by Caliper mobility shift assay (referring to J Biomol Screen 14:31, 2009). The compound of the present disclosure was dissolved in DMSO and then diluted 10-fold with kinase buffer solution (50 mM HEPES-pH 7.5, 0.0015% Brij-35, 10 mM MgCl2, 2 mM DTT). […] 10 μl of a substrate solution of a substrate FAM-labeled SRCtide peptide (Biochem, Cat. No. 112394) and ATP (90 μM) with 2.5-fold final reaction concentration was further added to start the reaction. Then incubation was performed for 10 minutes at room temperature. After incubation for 1 hour 28° C., 25 μl of stopping solution (100 mM HEPES, pH 7.5, 0.015% Brij-35, 0.2% Coating Reagent #3, 50 mM EDTA) was added to terminate the reaction. The conversion ratio data was read on Caliper EZ Reader II (Caliper Life Sciences). The inhibition ratio was calculated and the calculation formula is: inhibition ratio %=(max-conversion)/(max-min)×100 %.

Itk (h) = Itk (h) (Homo sapiens (Human), UniProt Q08881); experiment: ITK activity inhibition assay (radioactive protein kinase method, Eurofins); assay type: biochemical
Itk (h), sequence (Q08881 whole entry): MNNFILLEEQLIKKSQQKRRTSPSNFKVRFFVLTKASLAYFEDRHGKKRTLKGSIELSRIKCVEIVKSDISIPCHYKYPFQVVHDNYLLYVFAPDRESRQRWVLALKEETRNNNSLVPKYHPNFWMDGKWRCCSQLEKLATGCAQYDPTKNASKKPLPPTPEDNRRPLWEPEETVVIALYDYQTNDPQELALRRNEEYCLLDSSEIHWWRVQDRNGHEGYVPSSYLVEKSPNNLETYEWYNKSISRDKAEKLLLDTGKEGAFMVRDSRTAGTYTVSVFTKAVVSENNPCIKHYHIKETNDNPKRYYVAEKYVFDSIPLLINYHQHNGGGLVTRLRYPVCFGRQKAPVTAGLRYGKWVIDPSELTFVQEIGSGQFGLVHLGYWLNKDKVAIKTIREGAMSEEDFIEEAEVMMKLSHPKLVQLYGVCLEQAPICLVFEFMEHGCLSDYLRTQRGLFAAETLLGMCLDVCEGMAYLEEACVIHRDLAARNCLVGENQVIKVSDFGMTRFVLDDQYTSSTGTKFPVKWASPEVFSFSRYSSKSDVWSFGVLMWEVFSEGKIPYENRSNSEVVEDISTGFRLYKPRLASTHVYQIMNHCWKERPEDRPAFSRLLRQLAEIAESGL
Method: as §1
ITK reaction solution included 8 mM MOPS pH 7.0, 0.2 mM EDTA, 0.33 mg/mL myelin basic protein, 10 mM magnesium acetate, and [γ-^33P]-ATP (about 500 cpm/pmol), 200 μM ATP-Mg was added, after mixing, the reaction was started, the incubation was performed for 40 minutes at room temperature, and 3% phosphoric acid solution was added to terminate the reaction. 10 μl (reaction solution) was placed on P30 filtration membrane, washed with 75 mM phosphoric acid for 5 minutes, and dried with methanol for one time, and then scintillation counting was performed.

HCC827 NSCLC cell = experiment: Tumor cell proliferation inhibition assay (CellTiter-Glo), HCC827; assay type: cell-based; settings: Homo sapiens, 72 hours, 10% fetal calf serum, read-out: HCC827 anti-proliferative IC50 level
Method: as §2

[3] = system: TMD-8 lymphoma cell strain transplanted tumor; experiment: Tumor model pharmacodynamic assay, TMD-8 transplanted tumor; assay type: in vivo, mice; settings: for T/C (relative tumor volume increased ratio): 18 days
Method: The dose-effect relationship of inhibition of the compound to tumor growth in a diffuse large B cell lymphoma cell strain TMD-8 transplanted tumor model was studied in the present assay. When volume of TMD-8 tumor reached around 200 mm^3, the animals were divided into four oral administration groups, i.e. vehicle control group and 50 mg/kg, 100 mg/kg, and 200 mg/kg of compound 1 oral administration groups (n=8/
roup). […]
The tumor volume was measured, and the relative tumor volume (RTV) and the relative tumor volume increased ratio were calculated. RTV=Vt/V0, wherein Vt is the average value of the tumor volume at t^th day after the grouping and administrating, and V0 is the average value of the tumor volume at the grouping day. T/C=treatment group RTV/control group RTVx100%.

Txk (h) = Txk (h) (Homo sapiens (Human), UniProt P42681); experiment: Txk activity inhibition assay (radioactive protein kinase method, Eurofins); assay type: biochemical
Txk (h), sequence (P42681 whole entry): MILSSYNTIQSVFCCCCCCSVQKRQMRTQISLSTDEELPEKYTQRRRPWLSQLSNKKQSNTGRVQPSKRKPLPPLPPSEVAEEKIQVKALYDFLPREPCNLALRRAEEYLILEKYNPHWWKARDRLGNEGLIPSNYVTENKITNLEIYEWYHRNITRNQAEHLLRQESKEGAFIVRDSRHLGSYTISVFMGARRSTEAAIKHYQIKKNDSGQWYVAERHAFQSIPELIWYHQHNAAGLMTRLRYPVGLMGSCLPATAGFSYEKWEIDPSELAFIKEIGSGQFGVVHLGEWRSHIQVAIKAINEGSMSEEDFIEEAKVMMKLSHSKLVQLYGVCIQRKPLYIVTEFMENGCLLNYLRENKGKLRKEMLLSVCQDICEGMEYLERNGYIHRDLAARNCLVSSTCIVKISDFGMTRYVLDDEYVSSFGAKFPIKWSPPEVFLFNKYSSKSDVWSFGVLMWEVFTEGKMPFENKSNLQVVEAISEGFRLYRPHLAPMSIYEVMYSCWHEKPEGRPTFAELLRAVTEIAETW
Method: as §1
TxK reaction solution contained 8 mM MOPS pH 7.0, 0.2 mM EDTA, 250 μM […], 10 mM magnesium acetate, and [γ-^33P]-ATP (about 500 cpm/pmol), 200 μM ATP-Mg was added, after mixing, the reaction was started, the incubation was performed for 40 minutes at room temperature, and 3% phosphoric acid solution was added to terminate the reaction, 10 μl (reaction solution) was placed on P30 filtration membrane, washed with 75 mM phosphoric acid for 5 minutes, and dried with methanol for one time, and then scintillation counting was performed.

Tec (h) activated, sequence (P42680 whole entry): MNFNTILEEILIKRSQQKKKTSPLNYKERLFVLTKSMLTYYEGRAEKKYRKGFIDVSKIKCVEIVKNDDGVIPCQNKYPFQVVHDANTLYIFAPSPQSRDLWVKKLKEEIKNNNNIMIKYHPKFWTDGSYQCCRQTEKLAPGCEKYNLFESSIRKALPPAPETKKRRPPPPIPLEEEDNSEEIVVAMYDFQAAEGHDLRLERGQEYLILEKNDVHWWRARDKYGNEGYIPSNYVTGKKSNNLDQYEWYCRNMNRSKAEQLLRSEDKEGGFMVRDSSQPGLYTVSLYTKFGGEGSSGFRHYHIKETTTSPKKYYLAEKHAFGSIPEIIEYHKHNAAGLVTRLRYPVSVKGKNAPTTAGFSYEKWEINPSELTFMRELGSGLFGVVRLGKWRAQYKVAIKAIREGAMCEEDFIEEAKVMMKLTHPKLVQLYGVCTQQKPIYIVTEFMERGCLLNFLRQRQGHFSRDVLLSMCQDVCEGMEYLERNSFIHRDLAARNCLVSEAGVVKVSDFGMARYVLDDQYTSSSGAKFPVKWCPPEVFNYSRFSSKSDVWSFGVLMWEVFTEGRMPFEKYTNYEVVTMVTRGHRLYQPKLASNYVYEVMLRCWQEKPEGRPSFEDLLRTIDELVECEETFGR

SMILES: CC#CC(=O)N1CCC[C@H]1c1nc(-c2ccc(OCc3ccccc3)cc2)c2c(N)nccn12 [Compound 1, (S)-1-(2-(8-amino-1-(4-(benzyloxy)phenyl)imidazo[1,5-a]pyrazin-3-yl)pyrrolidin-1-yl)but-2-yn-1-one]
- inhibitory activity to Tec (in words) (Tec (h) activated): very low
- IC50 (Tec (h) activated; Km ATP, radiometric): 0.218 µM
- inhibitory effect on EGFR (in words) (EGFR T790M/L858R): does not inhibit
- IC50 (EGFR T790M/L858R; Km ATP): > 10 µM
- t1/2 ([1]; male SD rat): 4.2 h
- AUC(0-inf) ([1]; plasma, male SD rat): 3490 ng·h/mL
- Cmax ([1]; plasma, male SD rat): 1540 ng/mL
- Tmax ([1]; plasma, male SD rat): 0.5 h
- half-life ([1]; plasma, male SD rat): 4.2 h
- AUC(0-t) ([1]; plasma, male SD rat, read-out: AUC0-24): 3480 ng·h/mL
- AUC relative to ACP-196 ([1]; rat): more than double
- Cmax relative to ACP-196 ([1]; rat): more than double
- half-life compared to ACP-196 (in words) ([1]; rat): shorter half-life
- plasma exposure amount compared to ACP-196 (in words) ([1]; rat): higher plasma exposure amount
- IC50 [2]: ≤ 0.1 µM
- IC50 (BTK): ≤ 0.1 µM
- inhibitory activity to ITK (in words) (Itk (h)): very low
- IC50 (Itk (h); Km ATP, radiometric): > 10 µM
- IC50 (HCC827 NSCLC cell): > 10 µM
- T/C (relative tumor volume increased ratio) ([3]; 50 mg/kg oral once a day): 71%
- T/C (relative tumor volume increased ratio) ([3]; 100 mg/kg oral once a day): 7%
- T/C (relative tumor volume increased ratio) ([3]; 200 mg/kg oral once a day): −91%
- weight of the animal compared to before the administration ([3]; each administration group, 50, 100, 200 mg/kg oral): increased
- inhibition of growth of TMD-8 transplanted tumor (in words) ([3]; oral administration, 50-200 mg/kg): inhibit the growth of TMD-8 transplanted tumor dose-dependently; also recorded: dosage-dependently inhibit the growth
- inhibitory activity to Txk (in words) (Txk (h)): very low
- IC50 (Txk (h); Km ATP, radiometric): 4.54 µM
